*1 amine or outer side, *2 acyl side, *3 side chain or, on linkers, in order; H or OH if unused. Where a SMILES comes first, the peptide text is derived from it. The star is where a group is joined. X1 = O=c1nc(N*)ccn1[C@@H]1O[C@H](CO)[C@@H](O)C1(F)F; Suc = O=C(CCC(=O)[*:2])[*:1]
assay: Substrate activity at ENT1 in human BXPC-3 cells assessed as inhibition of cell growth pretreated with ENT1 inhibitor nitrobenzylthioinosine for 5 mins measured after 72 hrs by SRB assay

IC50 [nM] | Molecule
> 1000 | CSCC[C@H](NC(=O)[C@H](NC(=O)[C@@H]1CCCN1C(=O)[C@H](CC(C)C)NC(=O)[C@H](CCCCN)NC(=O)[C@@H](N)Cc1c[nH]c2ccccc12)C(C)C)C(N)=O
381 | CC(C)C[C@H](NC(=O)[C@@H](NC(=O)[C@@H]1CCCN1C(=O)[C@@H](NC(=O)[C@H](Cc1c[nH]c2ccccc12)NC(=O)CCC(=O)Nc1ccn([C@@H]2O[C@H](CO)[C@@H](O)C2(F)F)c(=O)n1)C(C)C)[C@@H](C)O)C(=O)N[C@@H](CCCCN)C(N)=O ({X1-Suc}-WVPTLK-NH2)
> 1000 | H-KLPVMW-NH2
> 1000 | H-WVPTLK-NH2

Molecule | IC50 [nM]
CSCC[C@H](NC(=O)[C@@H](NC(=O)[C@@H]1CCCN1C(=O)[C@H](CC(C)C)NC(=O)[C@H](CCCCN)NC(=O)CCC(=O)Nc1ccn([C@@H]2O[C@H](CO)[C@@H](O)C2(F)F)c(=O)n1)C(C)C)C(=O)N[C@@H](Cc1c[nH]c2ccccc12)C(N)=O ({X1-Suc}-KLPVMW-NH2) | 384
CSCC[C@H](NC(=O)[C@@H](NC(=O)[C@@H]1CCCN1C(=O)[C@H](CC(C)C)NC(=O)[C@H](CCCCN)NC(=O)[C@H](Cc1c[nH]c2ccccc12)NC(=O)CCC(=O)Nc1ccn([C@@H]2O[C@H](CO)[C@@H](O)C2(F)F)c(=O)n1)C(C)C)C(N)=O ({X1-Suc}-WKLPVM-NH2) | 380

From BindingDB's records for doi:10.1039/c9md00489k (University of Porto, 2020)
